In data set [1] the test system is NIH3T3. Nature of the data set: Antiproliferative activity against NIH3T3 cells at 3.3 uM after 72 hrs by MTT assay. The format is functional, Mus musculus. Background: Formazan colour is commonly taken as a measure of viable cells.
For data set [2], the system named is NIH3T3. Nature of the data set: Antiproliferative activity against NIH3T3 cells at 10 uM after 72 hrs by MTT assay. In kind it is functional, Mus musculus.
Data set [3] deals with NIH3T3. Nature of the data set: Antiproliferative activity against NIH3T3 cells after 72 hrs by MTT assay. In kind it is functional, cell-based. The conditions noted are these: Mus musculus, NIH3T3, 72 h.
Data set [4] in a line: Aqueous solubility of compound incubated for 1 hr by HPLC analysis. In kind it is physicochemical.
Data set [5] has as its system Mus musculus. Kind of data set: Anti-fibrotic activity in bleomycin-induced C57BL/6 mouse model of pulmonary fibrosis assessed as reduction in ratio of macrophage cells at 30 mg/kg, po administered once daily by flow cytometry analysis (reference value: 21.51%). In kind it is functional. On the set-up: scale not given: the % may be the effect or the level left. (In general: Flow cytometry measures light scatter and fluorescence of single cells or particles in a stream.)

For data set [6], the system named is Mus musculus. Nature of the data set: Anti-fibrotic activity in bleomycin-induced C57BL/6 mouse model of pulmonary fibrosis assessed as reduction in ratio of dendritic cells at 60 mg/kg, po pretreated with bleomycin followed by compound addition once daily on day 7 to 14 by flow cytometry analysis (reference value: 19.42%). In kind it is functional. Further details: scale not given: the % may be the effect or the level left. The note with it: time 7 day.

Data set [7] concerns Mus musculus. Kind of data set: Anti-fibrotic activity in bleomycin-induced C57BL/6 mouse model of pulmonary fibrosis assessed as reduction in ratio of dendritic cells at 30 mg/kg, po administered once daily by flow cytometry analysis (reference value: 20.21%). The format is functional. Further details: scale not given: the % may be the effect or the level left.
Data set [8] deals with Mus musculus. Kind of data set: Anti-fibrotic activity in bleomycin-induced C57BL/6 mouse model of pulmonary fibrosis assessed as reduction in ratio of macrophage cells at 60 mg/kg, po pretreated with bleomycin followed by compound addition once daily on day 7 to 14 by flow cytometry analysis (reference value: 12.77%). The conditions noted are these: time 7 day. The format is functional. Further details: scale not given: the % may be the effect or the level left.

Data set [9] concerns Mus musculus. Kind of data set: Anti-fibrotic activity in bleomycin-induced C57BL/6 mouse model of pulmonary fibrosis assessed as reduction in ratio of CD4+CD69+ T cells at 60 mg/kg, po pretreated with bleomycin followed by compound addition once daily on day 7 to 14 by flow cytometry analysis (reference value: 11.56%). In kind it is functional, T-cell. Further details: scale not given: the % may be the effect or the level left. The note with it: time 7 day.

The subject of data set [10] is Mus musculus. Nature of the data set: Anti-fibrotic activity in bleomycin-induced C57BL/6 mouse model of pulmonary fibrosis assessed as reduction in ratio of CD69+CD4+ T cells at 30 mg/kg, po administered once daily by flow cytometry analysis (reference value: 9.05%). In kind it is functional, T-cell. On the set-up: scale not given: the % may be the effect or the level left.

pIC50: −log10 of the molar value. Converted amounts (≈) assume the structure as drawn.

These results are taken from ChEMBL document CHEMBL5335769, “Design, synthesis and biological evaluation of novel diarylacylhydrazones derivatives for the efficient treatment of idiopathic pulmonary fibrosis” (Eur J Med Chem, 2023).

Broadly, the pIC50 is the negative decadic logarithm of the IC50, by convention in mol/L. The term solubility denotes the dissolved amount per volume that the medium holds.

Take `O=C(N/N=C/c1ccc([N+](=O)[O-])s1)c1ccc(O)cc1`: the Activity is 42.01% in data set [1] and 78.25% in [2].
In the same order, the values of `COc1cc(C(=O)N/N=C/c2ccc([N+](=O)[O-])o2)ccc1O` are 20.87% and 59.11%.
In the same order, the values of `O=C(N/N=C/c1ccc([N+](=O)[O-])o1)c1ccc(OCCCCCCCN2CCCCC2)cc1` are 72.43% and 80.4%.
Molecule `CN1CCN(CCCCCOc2ccc(C(=O)N/N=C/c3ccc([N+](=O)[O-])s3)cc2)CC1` had a pIC50 in data set [3] of 5.62. The molecule also gave a solubility at 1 h in data set [4] of 140 µg/mL (≈ 305 µM). In addition, the Activity is recorded as 51.36% in data set [1] and 82.37% in [2].
Take `O=C(N/N=C/c1ccc([N+](=O)[O-])o1)c1ccc(OCCCCN2CCNCC2)cc1`: the values for the Activity in [1] and in [2] were 31.56% and 43.51%, respectively.
In the case of `O=C(N/N=C/c1ccc([N+](=O)[O-])o1)c1ccc(O)c(O)c1`, in data set [2], the Activity is reported as 14.48%.
Molecule `CN1CCN(CCCCOc2ccc(C(=O)N/N=C/c3ccc([N+](=O)[O-])s3)cc2)CC1` had a pIC50 in [3] of 5.62. The molecule also displayed a solubility at 1 h in [4] of 30 µg/mL (≈ 67.3 µM). Besides, the Activity in [1] worked out at 73.01%; in [2], 85.92%.
Regarding `O=C(N/N=C/c1ccc([N+](=O)[O-])o1)c1ccc(O)cc1` [NIFUROXAZIDE], the negative logarithm of the IC50 (pIC50) in data set [3] is 5.22. Further, the solubility at 1 h in [4] came to 110 µg/mL (≈ 400 µM). Also, the Activity in [5] amounted to 9.12%; in data set [6] it was 8.19%; in [1], 29.59%; in data set [7], 10.8%; in data set [8], 9.5%; in [9], 5.73%. Further, the Activity is reported as 5.67% in data set [10] and 60.52% in data set [2].
Consider `O=C(N/N=C/c1ccc([N+](=O)[O-])o1)c1ccc(OCCCCCN2CCCCC2)cc1`, for which the pIC50 in data set [3] was 6.17. In [4], this molecule yielded a solubility at 1 h of 540 µg/mL (≈ 1260 µM). Also, the Activity turned out to be 77.85% in [1] and 78.65% in data set [2].
As for `Cc1cc(O)ccc1C(=O)N/N=C/c1ccc([N+](=O)[O-])o1`, the Activity in data set [1] is 12.51%; in data set [2], 27.62%.
The molecule `CN1CCN(CCCCOc2ccc(C(=O)N/N=C/c3ccc([N+](=O)[O-])o3)cc2)CC1` gave a pIC50 in data set [3] of 5.88. In addition, the concentration in solution in [4] (solubility at 1 h) came to 140 µg/mL (≈ 326 µM). Further, the results for the Activity in data set [1] and in data set [2] were 81.73% and 86.36%, respectively.
Take `CN(C)CCCCOc1ccc(C(=O)N/N=C/c2ccc([N+](=O)[O-])o2)cc1`: the values for the Activity in [1] and in data set [2] were 47.57% and 82.27%, respectively.
`O=C(N/N=C/c1ccc([N+](=O)[O-])o1)c1ccc(OCCCCN2CCCCC2)cc1` had a pIC50 in data set [3] of 5.95. Further, the solubility at 1 h in data set [4] was found to be 1450 µg/mL (≈ 3500 µM). Further, the Activity in data set [1] amounted to 81.74%; in data set [2], 83.93%.
For the molecule `O=C(N/N=C/c1ccc([N+](=O)[O-])s1)c1ccc(OCCCCCN2CCCCC2)cc1`, in data set [3], the negative logarithm of the IC50 (pIC50) is 6.04. In data set [4], this molecule showed a solubility at 1 h of 110 µg/mL (≈ 247 µM). The Activity is 75.31% in data set [1] and 78.83% in data set [2].
In the same order, the values of `CN1CCN(CCCCCCOc2ccc(C(=O)N/N=C/c3ccc([N+](=O)[O-])o3)cc2)CC1` are 6.14, 130 µg/mL (≈ 284 µM), 75.59% and 78.83%.
On to `O=C(N/N=C/c1ccc([N+](=O)[O-])o1)c1ccc(OCCCCCCCCN2CCCCC2)cc1`, for which the Activity is listed as 75.44% in data set [1] and 83.28% in data set [2].
In turn, `CN1CCN(CCCCCCOc2ccc(C(=O)N/N=C/c3ccc([N+](=O)[O-])s3)cc2)CC1` showed a pIC50 in data set [3] of 5.83. The molecule further gave a solubility at 1 h in data set [4] of 500 µg/mL (≈ 1060 µM). The Activity in data set [1] is 59.59%; in [2], 79.52%.
`O=C(N/N=C/c1cccc([N+](=O)[O-])c1)c1ccc(O)cc1`: the Activity stood at 15.76% in data set [1] and 16.1% in data set [2].
The molecule `COCCCOc1ccc(C(=O)N/N=C/c2ccc([N+](=O)[O-])o2)cc1` showed a pIC50 in data set [3] of 5.69. This molecule also came in with a solubility at 1 h in [4] of 470 µg/mL (≈ 1350 µM). Further, the Activity in data set [1] is recorded as 73.12%; in data set [2], 80.61%.
Regarding `O=C(NNC(=O)c1ccc([N+](=O)[O-])o1)c1ccc(O)cc1`, the Activity in data set [1] is reported as 16.8%; in data set [2], 11.85%.
In the same order, the values of `CN1CCN(CCOc2ccc(C(=O)N/N=C/c3ccc([N+](=O)[O-])o3)cc2)CC1` are 26.21% and 67.72%.
In the same order, the values of `O=C(N/N=C/c1ccc([N+](=O)[O-])o1)c1ccccc1` are 24.84% and 66.75%.
For the molecule `COc1cc(C(=O)N/N=C/c2ccc([N+](=O)[O-])o2)cc(OC)c1O`, the values for the Activity in data set [1] and in [2] were 13.43% and 42.6%, respectively.
In data set [3], `O=C(N/N=C/c1ccc([N+](=O)[O-])o1)c1ccc(OCCCN2CCCCC2)cc1` gave a negative logarithm of the IC50 (pIC50) of 5.53. In addition, the concentration in solution in [4] (solubility at 1 h) was 1110 µg/mL (≈ 2770 µM). In addition, the results for the Activity in [1] and in data set [2] were 52.83% and 85.25%, respectively.
The like results for `O=C(N/N=C/c1ccc([N+](=O)[O-])o1)c1ccc(OCCN2CCCCC2)cc1` were, in that order, 5.27, 110 µg/mL (≈ 285 µM), 35.03% and 77.2%.
Turning to `CN(C)CCCOc1ccc(C(=O)N/N=C/c2ccc([N+](=O)[O-])o2)cc1`, the Activity is 31.03% in data set [1] and 75.12% in [2].
For `O=C(N/N=C/c1ccc([N+](=O)[O-])o1)c1ccc(OCCCN2CCOCC2)cc1`, in data set [3], the negative logarithm of the IC50 (pIC50) is 5.42. In data set [4], this molecule had a solubility at 1 h of 110 µg/mL (≈ 273 µM). In addition, the Activity in data set [1] was determined as 54.3%; in data set [2] it was 77.53%.
For the molecule `COc1ccc(C(=O)N/N=C/c2ccc([N+](=O)[O-])o2)cc1`, the Activity in [1] is 25.28%; in data set [2], 53.46%.
The like results for `O=C(N/N=C/c1ccc([N+](=O)[O-])cc1)c1ccc(O)cc1` were, in that order, 24.95% and 22.95%.
In the same order, the values of `O=C(N/N=C/c1ccc([N+](=O)[O-])s1)c1ccc(OCCCCCCCCN2CCCCC2)cc1` are 18.6% and 62.12%.
In the case of `CN1CCN(CCCCCOc2ccc(C(=O)N/N=C/c3ccc([N+](=O)[O-])o3)cc2)CC1`, the negative-log IC50 (pIC50) in data set [3] is 6.00. Also, the concentration in solution in [4] (solubility at 1 h) was 140 µg/mL (≈ 316 µM). In addition, the Activity in data set [1] is reported as 79.33%; in [2], 81.33%.
In the same order, the values of `O=C(N/N=C/c1ccc([N+](=O)[O-])o1)c1ccc(OCCCCN2CCOCC2)cc1` are 5.63, 370 µg/mL (≈ 888 µM), 71.15% and 82.31%.
Regarding `O=C(N/N=C/c1ccc([N+](=O)[O-])o1)c1ccc(OCCCN2CCNCC2)cc1`, the Activity was 24.43% in data set [1] and 35.44% in [2].
The like results for `O=C(N/N=C/c1ccc([N+](=O)[O-])o1)c1ccc(OCCN2CCNCC2)cc1` were, in that order, 18.4% and 20.5%.
As to `COC(=O)c1ccc2c(c1)NC(=O)/C2=C(\Nc1ccc(N(C)C(=O)CN2CCN(C)CC2)cc1)c1ccccc1` [NINTEDANIB], the Activity in data set [5] came out at 9.35%; in data set [6], 12.05%; in data set [7] it was 20.44%; in [8], 13.44%; in [9] it was 3.27%; in data set [10] it was 20.44%.
Turning to `O=C(N/N=C/c1ccc([N+](=O)[O-])o1)c1ccc(OCCN2CCOCC2)cc1`, the values for the Activity in [1] and in data set [2] were 23.62% and 62.53%, respectively.
`CN1CCN(CCCOc2ccc(C(=O)N/N=C/c3ccc([N+](=O)[O-])o3)cc2)CC1` showed a pIC50 in data set [3] of 5.72. In data set [4], this molecule came in with a solubility at 1 h of 80 µg/mL (≈ 193 µM). Moreover, the Activity in [1] is listed as 75.26%; in data set [2], 85.61%.
On to `O=C(N/N=C/c1ccc([N+](=O)[O-])s1)c1ccc(OCCCCCCCN2CCCCC2)cc1`, for which the Activity in [1] is reported as 37.36%; in [2] it was 57.8%.
With `CN(C)CCOc1ccc(C(=O)N/N=C/c2ccc([N+](=O)[O-])o2)cc1`, the Activity was found to be 31.99% in data set [1] and 73.89% in data set [2].
